SMILES strings stand for the structures. Counter-ions that a name gives are not always drawn.

In the assay the target is T1, HCV polymerase (Hepatitis C virus genotype 1b, UniProt P26663).
T1 construct: a region encoding NS5B (591 amino acids; J Virol 1991 Mar, 65(3), 1105-13) was amplified by PCR; 6 His (N); made in house; host or cells: Escherichia coli
T1 sequence (P26663 2420-3010): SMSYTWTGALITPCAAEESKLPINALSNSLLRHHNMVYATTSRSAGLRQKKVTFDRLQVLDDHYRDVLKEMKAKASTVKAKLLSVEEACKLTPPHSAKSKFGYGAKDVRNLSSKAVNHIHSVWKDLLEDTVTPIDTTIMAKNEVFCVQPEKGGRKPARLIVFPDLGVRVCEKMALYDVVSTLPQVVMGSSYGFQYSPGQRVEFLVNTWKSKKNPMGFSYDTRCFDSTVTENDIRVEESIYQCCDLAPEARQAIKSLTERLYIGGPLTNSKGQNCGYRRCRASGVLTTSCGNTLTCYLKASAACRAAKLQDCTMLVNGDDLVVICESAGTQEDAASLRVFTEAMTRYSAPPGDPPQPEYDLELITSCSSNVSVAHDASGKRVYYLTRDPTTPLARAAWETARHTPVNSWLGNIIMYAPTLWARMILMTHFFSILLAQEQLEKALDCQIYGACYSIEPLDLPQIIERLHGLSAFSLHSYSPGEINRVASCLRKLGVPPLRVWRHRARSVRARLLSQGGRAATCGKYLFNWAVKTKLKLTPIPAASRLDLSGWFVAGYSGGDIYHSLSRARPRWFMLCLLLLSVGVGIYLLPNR
Put plainly: biochemical. Conditions: read-out: HCV polymerase inhibitory activity IC50.
As usually defined, the IC50 is the concentration at which inhibition is half-maximal. Turning to `O=C(O)c1ccc2c(c1)nc(-c1ccc(OCc3cc(N4CCCC4=O)ccc3-c3ccc(Cl)cc3)cc1F)n2C1CCSCC1` [Example 419, 2-{4-[2-(4-chlorophenyl)-5-(2-oxopyrrolidin-1-yl)benzyloxy]-2-fluorophenyl}-1-(tetrahydrothiopyran-4-yl)benzimidazole-5-carboxylic acid hydrochloride], the IC50 worked out at 21 nM.

`CC(C)NC(=O)c1ccc(-c2ccc(Cl)cc2)c(COc2ccc(-c3nc4cc(C(=O)O)ccc4n3N3CCCCC3)c(F)c2)c1` [Example 420, 2-{4-[2-(4-chlorophenyl)-5-(isopropylcarbamoyl)benzyloxy]-2-fluorophenyl}-1-piperidinobenzimidazole-5-carboxylic acid hydrochloride]: the IC50 amounted to 15 nM.

Consider `O=C(O)c1ccc2c(c1)nc(-c1ccc(OCc3cc(C(=O)N4CCCC4)ccc3-c3ccc(Cl)cc3)cc1F)n2N1CCCCC1` [Example 421, 2-{4-[2-(4-chlorophenyl)-5-(pyrrolidin-1-ylcarbonyl)benzyloxy]-2-fluorophenyl}-1-piperidinobenzimidazole-5-carboxylic acid], for which the IC50 was 17 nM.

`O=C(O)c1ccc2c(c1)nc(-c1ccc(OCc3cc(C4=NCCN4)ccc3-c3ccc(Cl)cc3)cc1F)n2C1CCCCC1` [Example 422, 2-{4-[2-(4-chlorophenyl)-5-(2-imidazolin-2-yl)benzyloxy]-2-fluorophenyl}-1-cyclohexylbenzimidazole-5-carboxylic acid dihydrochloride]: the IC50 was determined as 17 nM.

Regarding `O=C(O)c1ccc2c(c1)nc(-c1ccc(OCc3cc(N4CCOC4=O)ccc3-c3ccc(Cl)cc3)cc1F)n2C1CCCCC1` [Example 423, 2-{4-[2-(4-chlorophenyl)-5-(2-oxooxazolidin-3-yl)benzyloxy]-2-fluorophenyl}-1-cyclohexylbenzimidazole-5-carboxylic acid hydrochloride], the IC50 was found to be 17 nM.

With `O=C(O)c1ccc2c(c1)nc(-c1ccc(OCc3cc(N4CCNC4=O)ccc3-c3ccc(Cl)cc3)cc1F)n2C1CCCCC1` [Example 424, 2-{4-[2-(4-chlorophenyl)-5-(2-oxoimidazolidin-1-yl)benzyloxy]-2-fluorophenyl}-1-cyclohexylbenzimidazole-5-carboxylic acid hydrochloride], the IC50 came to 20 nM.

Turning to `O=C(O)c1ccc2c(c1)nc(-c1ccc(OCc3cc(NC4=NCCO4)ccc3-c3ccc(Cl)cc3)cc1F)n2C1CCCCC1` [Example 425, 2-{4-[2-(4-chlorophenyl)-5-(2-oxazolin-2-ylamino)benzyloxy]-2-fluorophenyl}-1-cyclohexylbenzimidazole-5-carboxylic acid dihydrochloride], the IC50 was found to be 26 nM.

`CN(C)C(=O)COCc1nc(-c2ccc(F)cc2)c(COc2ccc(-c3nc4cc(C(=O)O)ccc4n3C3CCCCC3)cc2)s1` [Example 426, 2-{4-[{2-[{(dimethylcarbamoyl)methoxy}methyl]-4-(4-fluorophenyl)thiazol-5-yl}methoxy]phenyl}-1-cyclohexylbenzimidazole-5-carboxylic acid hydrochloride]: the IC50 was determined as 53 nM.

For the compound `O=C(O)c1ccc2c(c1)nc(-c1ccc(OCc3sc(CN4CCC(O)CC4)nc3-c3ccc(F)cc3)cc1)n2C1CCCCC1` [Example 427, 2-{4-[{4-(4-fluorophenyl)-2-(4-hydroxypiperidin-1-ylmethyl)thiazol-5-yl}methoxy]phenyl}-1-cyclohexylbenzimidazole-5-carboxylic acid dihydrochloride], the IC50 was 20 nM.

Take `NC(=O)COCc1nc(-c2ccc(F)cc2)c(COc2ccc(-c3nc4cc(C(=O)O)ccc4n3C3CCCCC3)cc2)s1` [Example 428, 2-{4-[{4-(4-fluorophenyl)-2-[(carbamoylmethoxy)methyl]thiazol-5-yl}methoxy]phenyl}-1-cyclohexylbenzimidazole-5-carboxylic acid hydrochloride]: the IC50 stood at 26 nM.

With `CNC(=O)c1nc(-c2ccc(F)cc2)c(COc2ccc(-c3nc4cc(C(=O)O)ccc4n3C3CCCCC3)c(F)c2)s1` [Example 429, 2-{4-[{4-(4-fluorophenyl)-2-(methylcarbamoyl)thiazol-5-yl}methoxy]-2-fluorophenyl}-1-cyclohexylbenzimidazole-5-carboxylic acid hydrochloride], the IC50 was 17 nM.

`O=C(O)c1ccc2c(c1)nc(-c1ccc(OCc3sc(C(=O)NCCO)nc3-c3ccc(F)cc3)cc1F)n2C1CCCCC1` [Example 430, 2-{4-[{4-(4-fluorophenyl)-2-{(2-hydroxyethyl)carbamoyl}thiazol-5-yl}methoxy]-2-fluorophenyl}-1-cyclohexylbenzimidazole-5-carboxylic acid hydrochloride]: the IC50 amounted to 17 nM.

`CN(C)C(=O)c1cc(COc2ccc(-c3nc4cc(C(=O)O)ccc4n3C3CCCCC3)c(F)c2)c(-c2ccc(F)cc2)s1` [Example 431, 2-{4-[{2-(4-fluorophenyl)-5-(dimethylcarbamoyl)thiophen-3-yl}methoxy]-2-fluorophenyl}-1-cyclohexylbenzimidazole-5-carboxylic acid hydrochloride]: the IC50 was found to be 15 nM.

As for `CC(C)NC(=O)c1cc(COc2ccc(-c3nc4cc(C(=O)O)ccc4n3C3CCCCC3)c(F)c2)c(-c2ccc(F)cc2)s1` [Example 432, 2-{4-[{2-(4-fluorophenyl)-5-(isopropylcarbamoyl)thiophen-3-yl}methoxy]-2-fluorophenyl}-1-cyclohexylbenzimidazole-5-carboxylic acid hydrochloride], the IC50 was 22 nM.

In the case of `O=C(O)c1ccc2c(c1)nc(-c1ccc(OCc3cc(C(=O)N4CCC(O)CC4)sc3-c3ccc(F)cc3)cc1F)n2C1CCCCC1` [Example 433, 2-{4-[{2-(4-fluorophenyl)-5-(4-hydroxypiperidin-1-ylcarbonyl)thiophen-3-yl}methoxy]-2-fluorophenyl}-1-cyclohexylbenzimidazole-5-carboxylic acid hydrochloride], the IC50 worked out at 14 nM.

With `O=C(O)c1ccc(-c2ccc(Cl)cc2COc2ccc(-c3nc4cc(-c5nnn[nH]5)ccc4n3C3CCCCC3)c(F)c2)cc1` [Example 435, 2-{4-[2-(4-carboxyphenyl)-5-chlorobenzyloxy]-2-fluorophenyl}-1-cyclohexyl-5-tetrazol-5-ylbenzimidazole hydrochloride], the IC50 was found to be 12 nM.

As for `CC(C)NC(=O)c1ccc(-c2ccc(Cl)cc2)c(COc2ccc(-c3nc4cc(-c5noc(=O)[nH]5)ccc4n3C3CCCCC3)c(F)c2)c1` [Example 436, 2-{4-[2-(4-chlorophenyl)-5-(isopropylcarbamoyl)benzyloxy]-2-fluorophenyl}-1-cyclohexyl-5-(2,5-dihydro-5-oxo-4H-1,2,4-oxadiazol-3-yl)benzimidazole hydrochloride], the IC50 came out at 26 nM.

On to `O=C(O)c1ccc2c(c1)nc(-c1cc(C(c3cccc(F)c3)c3cccc(F)c3)c(O)cc1F)n2C1CCCCC1` [Example 440, 2-{5-[bis(3-fluorophenyl)methyl]-2-fluoro-4-hydroxyphenyl}-1-cyclohexylbenzimidazole-5-carboxylic acid], for which the IC50 was found to be 70 nM.

As for `CN(C)C(=O)c1cccc(C(Oc2ccc(-c3nc4cc(C(=O)O)ccc4n3C3CCCCC3)c(F)c2)c2ccc(F)cc2)c1` (centres unmarked) [Example 442, 2-{4-[(3-dimethylcarbamoylphenyl)(4-fluorophenyl)methoxy]-2-fluorophenyl}-1-cyclohexylbenzimidazole-5-carboxylic acid hydrochloride], the IC50 is 24 nM.

Consider `O=C(O)c1ccc2c(c1)nc(-c1ccc(OC(c3ccc(F)cc3)c3cccc(C(=O)N4CCC(O)CC4)c3)cc1F)n2C1CCCCC1` (centres unmarked) [Example 443, 2-{4-[{3-(4-hydroxypiperidyl-1-ylcarbonyl)phenyl}(4-fluorophenyl)methoxy]-2-fluorophenyl}-1-cyclohexylbenzimidazole-5-carboxylic acid hydrochloride], for which the IC50 amounted to 30 nM.

On to `O=C(O[C@@H]1O[C@H](C(=O)O)[C@@H](O)[C@H](O)[C@H]1O)c1ccc2c(c1)nc(-c1ccc(OC(c3cccc(F)c3)c3cccc(F)c3)cc1F)n2C1CCCCC1` [Example 445, {[2-{4-[bis(3-fluorophenyl)methoxy]-2-fluorophenyl}-1-cyclohexylbenzimidazol-5-yl]carbonyl}-β-D-glucuronic acid], for which the IC50 was found to be 330 nM.

In the case of `O=C(O)c1ccc2c(c1)nc(-c1ccc(OCc3cc(N4CCCS4(=O)=O)ccc3-c3ccc(Cl)cc3)cc1F)n2C1CCCCC1` [Example 446, 2-{4-[2-(4-chlorophenyl)-5-(1,1-dioxoisothiazolidin-2-yl)benzyloxy]-2-fluorophenyl}-1-cyclohexylbenzimidazole-5-carboxylic acid hydrochloride], the IC50 was 16 nM.

As for `CC(C)NC(=O)c1ccc(-c2ccc(Cl)cc2)c(COc2ccc(-c3nc4cc(S(N)(=O)=O)ccc4n3C3CCCCC3)c(F)c2)c1` [Example 447, 3-{[4-(5-aminosulfonyl-1-cyclohexylbenzimidazol-2-yl)-3-fluorophenoxy]methyl}-4-(4-chlorophenyl)-N-isopropylbenzamide], the IC50 was found to be 120 nM.

For the compound `CC(C)NC(=O)c1cccc(-c2ccc(Cl)cc2)c1COc1ccc(-c2nc3cc(C(=O)O)ccc3n2C2CCCCC2)c(F)c1` [Example 448, 2-[4-{2-(4-chlorophenyl)-6-(isopropylaminocarbonyl)benzyloxy}-2-fluorophenyl]-1-cyclohexylbenzimidazole-5-carboxylic acid hydrochloride], the IC50 came to 200 nM.

As for `O=C(O)c1ccc2c(c1)nc(-c1ccc(OCc3cc(N4CCCS4(=O)=O)c(F)cc3-c3ccc(Cl)cc3)cc1F)n2C1CCCCC1` [Example 449, 2-[4-{2-(4-chlorophenyl)-4-fluoro-5-(1,1-dioxoisothiazolidin-2-yl)benzyloxy}-2-fluorophenyl]-1-cyclohexylbenzimidazole-5-carboxylic acid hydrochloride], the IC50 stood at 25 nM.

Take `COc1c(C(=O)O)ccc2c1nc(-c1ccc(OCc3cc(C(=O)NC(C)C)ccc3-c3ccc(Cl)cc3)cc1F)n2C1CCCCC1` [Example 450, 2-[4-{2-(4-chlorophenyl)-5-(isopropylaminocarbonyl)benzyloxy}-2-fluorophenyl]-1-cyclohexyl-4-methoxybenzimidazole-5-carboxylic acid hydrochloride]: the IC50 was 40 nM.

The record behind these values is patent US20040082635A1, “Fused cyclic compounds and medicinal use thereof” (priority 2001, published 2004).
